# Data reported in patent US20240158446A1, “CYCLIC COMPOUND HAVING SELECTIVE INHIBITORY ACTION ON KRAS OVER HRAS AND NRAS” (CHUGAI SEIYAKU KABUSHIKI KAISHA, priority 2021, published 2024).
# Like-named read-outs stand apart in the source and are kept apart here. *1 amine or outer side, *2 acyl side, *3 side chain or, on linkers, in order; H or OH if unused. Where a SMILES comes first, the peptide text is derived from it. Bridges are numbered along the chain shown (N, C = ends). [ ]: non-standard residue; d: D form. The star is where a group is joined. hPhe(3-Cl-4-CF3) = N[C@@H](CCc1ccc(C(F)(F)F)c(Cl)c1)C(=O)O; X36 = Cc1ccc(C[C@@H](C(=O)[*:2])N(CCC(F)(F)F)[*:1])cc1; NPrPhe(4-CF3) = CCCN[C@@H](Cc1ccc(C(F)(F)F)cc1)C(=O)O; NMePhe(4-Me) = CN[C@@H](Cc1ccc(C)cc1)C(=O)O; NMeGly(cPent) = CN[C@H](C(=O)O)C1CCCC1; NMeD = CN[C@@H](CC(=O)O)C(=O)O; NMeL = CN[C@@H](CC(C)C)C(=O)O; Morpholide = C1CN(*)CCO1; Ac5c = NC1(C(=O)O)CCCC1; Ac4c = NC1(C(=O)O)CCC1; NEtG = CCNCC(=O)O; Sar = CNCC(=O)O
# What was measured:
# [1] = target: GDP-bound KRAS wild-type protein (Homo sapiens, UniProt P01116); test: Binding to KRAS by surface plasmon resonance (SPR), Single Cycle Kinetics; conditions: GDP-bound KRAS wild-type protein, read-out: KRAS KD
# GDP-bound KRAS wild-type protein, sequence (P01116 whole entry): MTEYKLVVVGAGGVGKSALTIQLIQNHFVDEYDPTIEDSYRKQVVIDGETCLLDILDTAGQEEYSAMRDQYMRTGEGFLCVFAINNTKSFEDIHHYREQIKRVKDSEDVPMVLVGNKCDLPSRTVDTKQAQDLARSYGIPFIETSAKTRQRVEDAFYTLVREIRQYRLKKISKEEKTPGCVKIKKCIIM
# [2] = target: GDP-bound NRAS wild-type protein (Homo sapiens, UniProt P01111); test: Binding to NRAS by surface plasmon resonance (SPR), Single Cycle Kinetics; conditions: SPR, GDP-bound NRAS wild-type protein vs GDP-bound KRAS wild-type protein
# GDP-bound NRAS wild-type protein, sequence (P01111 whole entry): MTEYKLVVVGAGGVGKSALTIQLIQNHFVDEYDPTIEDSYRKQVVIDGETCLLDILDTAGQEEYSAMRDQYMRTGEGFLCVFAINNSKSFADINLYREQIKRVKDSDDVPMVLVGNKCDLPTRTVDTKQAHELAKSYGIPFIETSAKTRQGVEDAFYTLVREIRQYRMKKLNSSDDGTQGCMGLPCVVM
# [3] = target: GDP-bound HRAS wild-type protein (Homo sapiens, UniProt P01112); test: Binding to HRAS by surface plasmon resonance (SPR), Single Cycle Kinetics; conditions: SPR, GDP-bound HRAS wild-type protein vs GDP-bound KRAS wild-type protein
# GDP-bound HRAS wild-type protein, sequence (P01112 whole entry): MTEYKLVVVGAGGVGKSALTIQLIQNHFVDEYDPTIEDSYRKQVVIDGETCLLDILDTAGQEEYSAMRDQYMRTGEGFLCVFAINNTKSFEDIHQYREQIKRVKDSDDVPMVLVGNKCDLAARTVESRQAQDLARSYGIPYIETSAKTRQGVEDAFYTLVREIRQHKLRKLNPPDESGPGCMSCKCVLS
# [4] = SPR Single Cycle Kinetics, 1:1 binding model
"Kd [1, 4] [pM]",Structure (SMILES),NRAS/KRAS (ratio of KD value for NRAS to KD value for KRAS) [2],HRAS/KRAS (ratio of KD value for HRAS to KD value for KRAS) [3],further results
14,CCO[C@@H]1C[C@H]2C(=O)NC3(CCC3)C(=O)N(C)[C@@H](C3CCCC3)C(=O)N(C)[C@H](C(=O)N(C)C)CC(=O)N(C)[C@@H](C)C(=O)N[C@@H]([C@@H](C)CC)C(=O)N(C)CC(=O)N(C)[C@H]3CCCCN(C3=O)[C@@H](Cc3ccc(C(F)(F)F)cc3)C(=O)N(C)CC(=O)N[C@@H](CCc3cc(F)c(C(F)(F)F)c(F)c3)C(=O)N2C1 [PP0587],–,–,NRAS/KRAS (ratio of KD value with respect to NRAS to KD value with respect to KRAS) [2]: C (A compound having a KD ratio of 0.1 or more and less than 3 is denoted as C); HRAS/KRAS (ratio of KD value with respect to HRAS to KD value with respect to KRAS) [3]: C (A compound having a KD ratio of 0.1 or more and less than 3 is denoted as C)
170,CCCN1C(=O)CN(C)C(=O)CN(CC)C(=O)[C@H]([C@@H](C)CC)NC(=O)[C@H](CC(C)C)N(C)C(=O)C[C@@H](C(=O)N(C)C)N(C)C(=O)[C@H](C2CCCC2)N(C)C(=O)C2(CCC2)NC(=O)[C@@H]2CCCN2C(=O)[C@H](CCc2ccc(C(F)(F)F)c(Cl)c2)NC(=O)CN(C)C(=O)[C@@H]1Cc1ccc(C(F)(F)F)cc1 [PP0424] ([NMeL]I[NEtG][Sar][NPrPhe(4-CF3)][Sar][hPhe(3-Cl-4-CF3)]P[Ac4c][NMeGly(cPent)][NMeD]-NMe2; lactam N-11),–,–,NRAS/KRAS (ratio of KD value with respect to NRAS to KD value with respect to KRAS) [2]: B (a compound having 3 or more and less than 10 is denoted as B); HRAS/KRAS (ratio of KD value with respect to HRAS to KD value with respect to KRAS) [3]: C (A compound having a KD ratio of 0.1 or more and less than 3 is denoted as C)
–,CC[C@H](C)[C@@H]1NC(=O)[C@H](CC(C)C)N(C)C(=O)C[C@@H](C(=O)N2CCOCC2)N(CC)C(=O)[C@H](C2CCCC2)N(C)C(=O)C2(CCCC2)NC(=O)[C@@H]2CCCN2C(=O)[C@H](CCc2ccc(C(F)(F)F)c(Cl)c2)NC(=O)CN(C)C(=O)[C@H](Cc2ccc(F)cc2)N2CCCCC[C@@H](C2=O)N(C)C(=O)CN(C)C1=O [PP0970],B (a compound having 3 or more and less than 10 is denoted as B),B (a compound having 3 or more and less than 10 is denoted as B),"Kd ([1]; SPR, Single Cycle Kinetics): 2200 pM"
150,CC[C@H](C)[C@@H]1NC(=O)[C@H](CC(C)C)N(C)C(=O)C[C@@H](C(=O)N2CCOCC2)N(C)C(=O)[C@H](C2CCCC2)N(C)C(=O)C2(CCCC2)NC(=O)[C@@H]2CCCN2C(=O)[C@H](CCc2ccc(C(F)(F)F)c(Cl)c2)NC(=O)CN(C)C(=O)[C@H](Cc2ccc(C)cc2)N(CCC(F)(F)F)C(=O)CN(C)C(=O)CN(C)C1=O [PP0103] ([NMeL]I[Sar][Sar][X36][Sar][hPhe(3-Cl-4-CF3)]P[Ac5c][NMeGly(cPent)][NMeD]-Morpholide; lactam N-11),B (a compound having 3 or more and less than 10 is denoted as B),C (A compound having a KD ratio of 0.1 or more and less than 3 is denoted as C),–
–,C=CCN1CC(=O)N(C)[C@H]2C/C=C\CCN(C2=O)[C@@H](Cc2ccc(C)cc2)C(=O)N(C)CC(=O)N[C@@H](CCc2cc(F)c(C(F)(F)F)c(F)c2)C(=O)N2C[C@H](OCC)C[C@H]2C(=O)NC2(CC(C)(C)C2)C(=O)N(C)[C@@H](C2CCCC2)C(=O)N(C)[C@H](C(=O)N(C)C)CC(=O)N(C)[C@@H](CC(C)C)C(=O)N[C@@H]([C@@H](C)CC)C1=O [PP2050],A (a compound having 10 or more and less than 20 is denoted as A),A (a compound having 10 or more and less than 20 is denoted as A),"Kd ([1]; SPR, Single Cycle Kinetics): 190 pM"
–,CC[C@H](C)[C@@H]1NC(=O)[C@H](CC2CCCC2)N(C)C(=O)C[C@@H](C(=O)N(C)C)N(C)C(=O)[C@H](C2CCCC2)N(C)C(=O)C2(CCC2)NC(=O)[C@@H]2C[C@@H](C(F)(F)F)CN2C(=O)[C@H](CCc2cc(F)c(C(F)(F)F)c(F)c2)NC(=O)CN(C)C(=O)[C@H](Cc2ccc(C(F)(F)F)cc2)N2CC/C=C\C[C@@H](C2=O)N(C)C(=O)CN(C)C1=O [PP1505],–,–,"Kd ([1]; SPR, Single Cycle Kinetics, 1:1 binding model): 92 pM; NRAS/KRAS (ratio of KD value for NRAS to KD value for KRAS) ([2]; KD ratio class): A (a compound having 10 or more and less than 20 is denoted as A); HRAS/KRAS (ratio of KD value for HRAS to KD value for KRAS) ([3]; KD ratio class): A (a compound having 10 or more and less than 20 is denoted as A)"
2400,CC[C@H](C)[C@@H]1NC(=O)[C@H](CC(C)C)N(C)C(=O)C[C@@H](C(=O)N2CCOCC2)N(C)C(=O)[C@H](C2CCCC2)N(C)C(=O)C2(CCCC2)NC(=O)[C@@H]2CCCN2C(=O)[C@H](CCc2ccc(C(F)(F)F)c(Cl)c2)NC(=O)CN(CC)C(=O)[C@H](Cc2ccc(C)cc2)N(C)C(=O)CN(C)C(=O)CN(C)C1=O [PP0025] ([NMeL]I[Sar][Sar][NMePhe(4-Me)][NEtG][hPhe(3-Cl-4-CF3)]P[Ac5c][NMeGly(cPent)][NMeD]-Morpholide; lactam N-11),C (A compound having a KD ratio of 0.1 or more and less than 3 is denoted as C),C (A compound having a KD ratio of 0.1 or more and less than 3 is denoted as C),–
